# Measurements from patent publication US10933063B2 (priority 2017, dated 2021).
# Like-named read-outs stand apart in the source and are kept apart here.
# Columns and labels:
# LYN = LYN (Homo sapiens (Human), UniProt P07948); details: read-out: LYN IC50, [ATP]=20 μM
# Protocol: (§1) Btk kinase activity was determined using a homogenous time resolved fluorescence (HTRF) methodology. Measurements were performed in a reaction volume of 15 μL using 384-well assay plates. Kinase enzyme, inhibitor, ATP and 1 μM peptide substrate were incubated in a reaction buffer compose of Hepes50 mM (pH7.0), NaN3 0.02%, BSA 0.01%, Orthocanadate 0.1 mM. […] For each compound, enzyme activity as measured at various concentrations of compound, Negative control reactions were performed in the absence of inhibitor in two replicates and eight no enzyme controls were used to determine baseline fluorescence levels.
# (§2) For LYN assay, [ATP]=20 μM, LYN=0.12 n M. For LCK assay, [ATP]=20 μM, LCK=0.2 nM.
# LCK = LCK (Homo sapiens (Human), UniProt P06239); details: read-out: LCK IC50; [ATP]=20 μM, LCK=0.2 nM
# Protocol: as §1, §2
# ITK = ITK (Homo sapiens (Human), UniProt Q08881); assay: biochemical
# TEC = TEC (Homo sapiens (Human), UniProt P42680); assay: biochemical
# Sequence of TEC (P42680 whole entry, looked up): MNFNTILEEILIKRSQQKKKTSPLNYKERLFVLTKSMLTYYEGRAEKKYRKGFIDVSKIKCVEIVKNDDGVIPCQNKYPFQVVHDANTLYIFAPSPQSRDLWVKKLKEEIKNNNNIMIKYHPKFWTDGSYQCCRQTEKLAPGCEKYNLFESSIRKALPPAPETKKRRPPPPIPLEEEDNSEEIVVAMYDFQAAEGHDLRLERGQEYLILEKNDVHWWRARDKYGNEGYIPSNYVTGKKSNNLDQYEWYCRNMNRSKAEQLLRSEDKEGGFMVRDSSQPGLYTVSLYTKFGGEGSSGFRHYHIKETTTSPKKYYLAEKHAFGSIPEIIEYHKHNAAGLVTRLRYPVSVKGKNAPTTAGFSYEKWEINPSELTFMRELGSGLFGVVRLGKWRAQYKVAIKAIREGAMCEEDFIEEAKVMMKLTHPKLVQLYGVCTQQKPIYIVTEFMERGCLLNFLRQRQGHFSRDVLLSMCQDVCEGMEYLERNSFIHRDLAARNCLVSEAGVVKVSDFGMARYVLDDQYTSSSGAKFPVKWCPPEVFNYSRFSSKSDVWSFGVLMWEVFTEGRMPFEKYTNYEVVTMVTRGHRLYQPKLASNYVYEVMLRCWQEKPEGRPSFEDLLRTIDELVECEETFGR
# EGFR = EGFR (Homo sapiens (Human), UniProt P00533); assay: biochemical
# Sequence of EGFR (P00533 whole entry, looked up, species assumed): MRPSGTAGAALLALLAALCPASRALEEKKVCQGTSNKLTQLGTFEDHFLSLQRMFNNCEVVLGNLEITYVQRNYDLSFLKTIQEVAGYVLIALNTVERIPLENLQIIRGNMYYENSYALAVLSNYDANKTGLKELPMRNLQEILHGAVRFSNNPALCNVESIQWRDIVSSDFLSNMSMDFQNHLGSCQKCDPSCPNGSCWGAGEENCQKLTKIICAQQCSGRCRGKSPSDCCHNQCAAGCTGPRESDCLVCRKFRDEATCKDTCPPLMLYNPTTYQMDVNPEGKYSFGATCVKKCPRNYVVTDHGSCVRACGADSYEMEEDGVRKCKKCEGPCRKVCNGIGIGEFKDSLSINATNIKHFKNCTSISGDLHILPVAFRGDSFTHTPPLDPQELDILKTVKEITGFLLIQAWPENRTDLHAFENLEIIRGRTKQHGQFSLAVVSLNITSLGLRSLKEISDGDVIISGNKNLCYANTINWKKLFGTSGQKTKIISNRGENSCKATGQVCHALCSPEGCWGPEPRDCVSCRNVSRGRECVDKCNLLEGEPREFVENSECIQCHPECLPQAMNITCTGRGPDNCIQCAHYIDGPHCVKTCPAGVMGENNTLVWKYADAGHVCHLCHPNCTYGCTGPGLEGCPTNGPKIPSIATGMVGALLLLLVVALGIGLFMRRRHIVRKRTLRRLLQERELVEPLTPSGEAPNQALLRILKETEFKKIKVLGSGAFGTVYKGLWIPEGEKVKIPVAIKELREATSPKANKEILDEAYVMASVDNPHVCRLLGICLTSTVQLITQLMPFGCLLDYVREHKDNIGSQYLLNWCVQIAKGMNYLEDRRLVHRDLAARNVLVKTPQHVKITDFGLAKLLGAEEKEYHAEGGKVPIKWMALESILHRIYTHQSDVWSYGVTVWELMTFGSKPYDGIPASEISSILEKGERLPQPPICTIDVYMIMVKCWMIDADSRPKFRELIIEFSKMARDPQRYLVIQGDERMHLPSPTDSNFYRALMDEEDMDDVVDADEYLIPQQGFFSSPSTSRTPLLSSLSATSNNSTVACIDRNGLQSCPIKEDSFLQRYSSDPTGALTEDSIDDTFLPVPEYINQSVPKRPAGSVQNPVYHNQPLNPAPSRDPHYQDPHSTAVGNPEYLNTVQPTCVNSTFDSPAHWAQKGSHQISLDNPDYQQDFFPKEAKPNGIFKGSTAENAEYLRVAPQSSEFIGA
# BTK [1] = target: T1, BTK (Homo sapiens (Human), UniProt Q06187)
# T1 sequence (Q06187 whole entry, looked up, species assumed): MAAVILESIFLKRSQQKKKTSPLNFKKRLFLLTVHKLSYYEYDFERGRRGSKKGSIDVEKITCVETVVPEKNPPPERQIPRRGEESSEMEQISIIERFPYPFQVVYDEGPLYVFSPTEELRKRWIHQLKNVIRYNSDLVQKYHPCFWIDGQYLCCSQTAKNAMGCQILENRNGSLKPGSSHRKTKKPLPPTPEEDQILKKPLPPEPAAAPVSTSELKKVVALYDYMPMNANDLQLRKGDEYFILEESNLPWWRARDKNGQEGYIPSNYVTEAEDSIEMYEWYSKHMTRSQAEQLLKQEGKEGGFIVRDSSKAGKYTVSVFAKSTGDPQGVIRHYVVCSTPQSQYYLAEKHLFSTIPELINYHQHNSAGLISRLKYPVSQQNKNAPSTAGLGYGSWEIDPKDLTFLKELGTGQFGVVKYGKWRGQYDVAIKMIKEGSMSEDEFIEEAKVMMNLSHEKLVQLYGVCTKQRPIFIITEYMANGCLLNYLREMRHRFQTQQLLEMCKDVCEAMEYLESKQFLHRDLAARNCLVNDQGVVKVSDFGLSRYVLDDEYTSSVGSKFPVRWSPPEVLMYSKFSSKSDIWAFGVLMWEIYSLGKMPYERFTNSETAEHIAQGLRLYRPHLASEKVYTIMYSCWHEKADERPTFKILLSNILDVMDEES
# BTK [2] = target: T1, BTK; assay: biochemical
# Sequence of ITK (Q08881 whole entry, looked up, species assumed): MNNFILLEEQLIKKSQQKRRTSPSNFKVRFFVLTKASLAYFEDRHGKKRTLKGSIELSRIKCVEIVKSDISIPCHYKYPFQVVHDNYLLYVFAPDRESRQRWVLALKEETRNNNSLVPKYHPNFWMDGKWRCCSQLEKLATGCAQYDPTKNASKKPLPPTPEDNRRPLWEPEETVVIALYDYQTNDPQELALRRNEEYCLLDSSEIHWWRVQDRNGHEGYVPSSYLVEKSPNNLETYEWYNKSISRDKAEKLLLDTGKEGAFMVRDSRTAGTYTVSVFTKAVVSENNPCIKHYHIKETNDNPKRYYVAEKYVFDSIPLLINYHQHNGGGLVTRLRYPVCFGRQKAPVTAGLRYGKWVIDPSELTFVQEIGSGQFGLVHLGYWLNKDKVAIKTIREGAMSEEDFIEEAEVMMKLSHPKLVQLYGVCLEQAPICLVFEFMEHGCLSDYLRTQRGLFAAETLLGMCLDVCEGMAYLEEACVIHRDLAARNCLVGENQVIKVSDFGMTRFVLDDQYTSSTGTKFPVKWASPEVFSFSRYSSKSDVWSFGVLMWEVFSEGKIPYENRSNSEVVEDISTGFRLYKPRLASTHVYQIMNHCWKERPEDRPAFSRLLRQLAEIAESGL
# Sequence of LYN (P07948 whole entry, looked up, species assumed): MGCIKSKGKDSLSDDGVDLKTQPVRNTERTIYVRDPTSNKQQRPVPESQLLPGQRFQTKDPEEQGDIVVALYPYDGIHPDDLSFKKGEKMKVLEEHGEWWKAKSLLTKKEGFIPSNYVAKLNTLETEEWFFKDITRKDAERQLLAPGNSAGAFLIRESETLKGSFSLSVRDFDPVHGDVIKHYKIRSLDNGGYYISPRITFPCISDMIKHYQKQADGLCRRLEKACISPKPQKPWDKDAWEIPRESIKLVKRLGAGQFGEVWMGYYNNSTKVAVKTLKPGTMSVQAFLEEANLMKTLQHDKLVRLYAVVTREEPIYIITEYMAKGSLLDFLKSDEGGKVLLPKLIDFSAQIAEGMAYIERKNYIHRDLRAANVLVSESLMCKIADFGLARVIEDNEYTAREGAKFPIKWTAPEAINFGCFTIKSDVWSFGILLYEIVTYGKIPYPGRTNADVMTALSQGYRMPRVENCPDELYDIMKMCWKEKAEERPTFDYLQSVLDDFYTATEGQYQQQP
# Sequence of LCK (P06239 whole entry, looked up, species assumed): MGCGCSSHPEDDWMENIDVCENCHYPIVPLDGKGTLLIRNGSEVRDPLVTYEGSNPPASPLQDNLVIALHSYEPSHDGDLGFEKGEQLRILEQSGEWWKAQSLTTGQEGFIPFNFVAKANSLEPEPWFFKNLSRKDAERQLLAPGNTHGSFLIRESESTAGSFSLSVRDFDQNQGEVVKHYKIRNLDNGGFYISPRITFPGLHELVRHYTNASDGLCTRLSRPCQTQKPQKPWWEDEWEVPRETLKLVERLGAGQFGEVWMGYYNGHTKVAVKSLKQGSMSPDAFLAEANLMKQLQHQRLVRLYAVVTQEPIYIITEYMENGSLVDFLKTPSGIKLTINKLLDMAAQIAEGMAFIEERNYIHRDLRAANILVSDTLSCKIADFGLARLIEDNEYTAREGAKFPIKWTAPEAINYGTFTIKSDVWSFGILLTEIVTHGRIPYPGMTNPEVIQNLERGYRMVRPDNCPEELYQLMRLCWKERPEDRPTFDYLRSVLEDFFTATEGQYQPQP
SMILES,IC50 (BTK [1]; read-out: BTK Inhibition) [nM],also measured
"C=CC(=O)N1CCC[C@H]1c1nc(-c2ccc(Oc3cccc(F)c3F)cc2)c2cnccn12 [Example 20, (S)-1-(2-(1-(4-(2,3-difluorophenoxy)phenyl)imidazo[1,5-a]pyrazin-3-yl)pyrrolidin-1-yl)prop-2-en-1-one]",< 10,IC50 (LYN): > 10000 nM; IC50 (LCK): > 10000 nM; IC50 (ITK): 1000 to 10000 nM; IC50 (TEC): 100 to 1000 nM; IC50 (EGFR): 1000 to 10000 nM; IC50 (BTK [1]; read-out: BTK IC50): < 10 nM
"C=CC(=O)N1CCC[C@H]1c1nc(-c2ccc(Oc3cccc(OC)c3F)cc2)c2cncc(C)n12 [Example 62, (S)-1-(2-(1-(4-(2-fluoro-3-methoxyphenoxy)phenyl)-5-methylimidazo[1,5-a]pyrazin-3-yl)pyrrolidin-1-yl)prop-2-en-1-one]",< 10,
"C=CC(=O)N1CCCC[C@H]1c1nc(-c2ccc(Oc3cccc(OC)c3)cc2)c2c(C)nccn12 [Example 48, (S)-1-(2-(1-(4-(3-methoxyphenoxy)phenyl)-8-methylimidazo[1,5-a]pyrazin-3-yl)piperidin-1-yl)prop-2-en-1-one]",< 10,
"C=CC(=O)N1CCC[C@H]1c1nc(-c2ccc(Oc3cccc(OC)c3)cc2)c2cnccn12 [Example 16, (S)-1-(2-(1-(4-(3-methoxyphenoxy)phenyl)imidazo[1,5-a]pyrazin-3-yl)pyrrolidin-1-yl)prop-2-en-1-one]",< 10,IC50 (LYN): > 10000 nM; IC50 (LCK): > 10000 nM; IC50 (ITK): 1000 to 10000 nM; IC50 (TEC): 100 to 1000 nM; IC50 (EGFR): 1000 to 10000 nM; IC50 (BTK [1]; read-out: BTK IC50): < 10 nM
"CC#CC(=O)N1CCC[C@H]1c1nc(-c2ccc(Oc3ccccc3)nc2)c2cnccn12 [Example 15, (S)-1-(2-(1-(6-phenoxypyridin-3-yl)imidazo[1,5-a]pyrazin-3-yl)pyrrolidin-1-yl)but-2-yn-1-one]",> 10000,
"C=CC(=O)N1CCC[C@H]1c1nc(-c2ccc(C(=O)Nc3ccccn3)cc2)c2c(C3CC3)nccn12 [Example 190, (S)-4-(3-(1-acryloylpyrrolidin-2-yl)-8-cyclopropylimidazo [1,5-a]pyrazin-l-yl)-N-(pyridin-2-yl)benzamide]",> 10000,
"C=CC(=O)N1CCCC[C@H]1c1nc(-c2ccc(Oc3cccc(F)c3)cc2)c2c(C)nccn12 [Example 55, (S)-1-(2-(1-(4-(3-fluorophenoxy)phenyl)-8-methylimidazo[1,5-a]pyrazin-3-yl)piperidin-1-yl)prop-2-en-1-one]",< 10,
"C=CC(=O)N1CCC[C@H]1c1nc(-c2ccc(C(=O)Nc3ccccn3)cc2)c2c(C)ncc(C)n12 [Example 174, (S)-4-(3-(1-acryloylpyrrolidin-2-yl)-5,8-dimethylimidazo [1,5-a]pyrazin-1-yl)-N-(pyridin-2-yl)benzamide]",< 10,
"CCCCOc1cncc2c(-c3ccc(Oc4cccc(OC)c4F)cc3)nc([C@@H]3CCN(Cc4ccccc4)C3)n12 [Example 102, (R)-3-(1-benzylpyrrolidin-3-yl)-5-butoxy-1-(4-(2-fluoro-3-methoxyphenoxy)phenyl)imidazo[1,5-a]pyrazine]",> 10000,
"C=CC(=O)N1CCC[C@H]1c1nc(-c2ccc(Oc3cccc(OC)c3F)cc2)c2cncc(OC)n12 [Example 82, (S)-1-(2-(1-(4-(2-fluoro-3-methoxyphenoxy)phenyl)-5-methoxyimidazo[1,5-a]pyrazin-3-yl)pyrrolidin-1-yl)prop-2-en-1-one]",< 10,
"CC#CC(=O)N1CC[C@@H](c2nc(-c3ccc(Oc4cccc(OC)c4F)cc3)c3cncc(OCC)n23)C1 [Example 93, (R)-1-(3-(5-ethoxy-1-(4-(2-fluoro-3-methoxyphenoxy)phenyl)imidazo[1,5-a]pyrazin-3-yl)pyrrolidin-1-yl)but-2-yn-1-one]",< 10,
"C=CC(=O)N1CCCC[C@H]1c1nc(-c2ccc(C(=O)Nc3ccccn3)cc2)c2c(C3CC3)nccn12 [Example 191, (S)-4-(3-(1-acryloylpiperidin-2-yl)-8-cyclopropylimidazo [1,5-a]pyrazin-1-yl)-N-(pyridin-2-yl)benzamide]",> 10000,
"CC#CC(=O)N1CC[C@@H](c2nc(-c3ccc(Oc4cccc(OC)c4F)cc3)c3cnccn23)C1 [Example 69, (R)-1-(3-(1-(4-(2-fluoro-3-methoxyphenoxy)phenyl)imidazo[1,5-a]pyrazin-3-yl)pyrrolidin-1-yl)but-2-yn-1-one]",< 10,
"C=CC(=O)N1CC[C@@H](c2nc(-c3ccc(Oc4cccc(OC)c4F)cc3)c3cncc(OCC)n23)C1 [Example 94, (R)-1-(3-(5-ethoxy-1-(4-(2-fluoro-3-methoxyphenoxy)phenyl)imidazo[1,5-a]pyrazin-3-yl)pyrrolidin-1-yl)prop-2-en-1-one]",< 10,
"C=CC(=O)N1CCC[C@H]1c1nc(-c2ccc(Oc3cccc(Cl)c3F)cc2)c2cnccn12 [Example 22, (S)-1-(2-(1-(4-(3-chloro-2-fluorophenoxy)phenyl)imidazo[1,5-a]pyrazin-3-yl)pyrrolidin-1-yl)prop-2-en-1-one]",< 10,
"C=CC(=O)N1CCC[C@@H](c2nc(-c3ccc(C(=O)Nc4ccccn4)cc3)c3c(C)ncc(C)n23)C1 [Example 184, (R)-4-(3-(1-acryloylpiperidin-3-yl)-5,8-dimethylimidazo [1,5-a]pyrazin-1-yl)-N-(pyridin-2-yl)benzamide]",< 10,
"C=CC(=O)N1CCCC[C@H]1c1nc(-c2ccc(Oc3cccc(C)c3)cc2)c2c(C)nccn12 [Example 40, (S)-1-(2-(8-methyl-1-(4-(m-tolyloxy)phenyl)imidazo[1,5-a]pyrazin-3-yl)piperidin-1-yl)prop-2-en-1-one]",< 10,
"C=CC(=O)N1CC[C@@H](c2nc(-c3ccc(Oc4cccc(OC)c4F)cc3)c3cnccn23)C1 [Example 68, (R)-1-(3-(1-(4-(2-fluoro-3-methoxyphenoxy)phenyl)imidazo[1,5-a]pyrazin-3-yl)pyrrolidin-1-yl)prop-2-en-1-one]",< 10,
"CC#CC(=O)N1CC[C@@H](c2nc(-c3ccc(Oc4cccc(OC)c4F)cc3)c3c(C(N)=O)nccn23)C1 [Example 108, (R)-3-(1-(but-2-ynoyl)pyrrolidin-3-yl)-1-(4-(2-fluoro-3-methoxyphenoxy)phenyl)imidazo[1,5-a]pyrazine-8-carboxamide]",> 10000,
"C=CC(=O)N1CC[C@@H](c2nc(-c3ccc(Oc4cccc(OC)c4F)cc3)c3cncc(OCCC)n23)C1 [Example 95, (R)-1-(3-(1-(4-(2-fluoro-3-methoxyphenoxy)phenyl)-5-propoxyimidazo[1,5-a]pyrazin-3-yl)pyrrolidin-1-yl)prop-2-en-1-one]",< 10,
"C=CC(=O)N1CCCC[C@H]1c1nc(-c2ccc(C(=O)Nc3ccccn3)cc2)c2c(C(F)(F)F)nccn12 [Example 199, (S)-4-(3-(1-acryloylpiperidin-2-yl)-8-(trifluoromethyl)imidazo[1,5-a]pyrazin-1-yl)-N-(pyridin-2-yl)benzamide]",> 10000,
"CC#CC(=O)N1CCCC[C@H]1c1nc(-c2ccc(C(=O)Nc3ccccn3)cc2)c2c(C3CC3)nccn12 [Example 192, (S)-4-(3-(1-(but-2-ynoyl)piperidin-2-yl)-8-cyclopropylimidazo[1,5-a]pyrazin-1-yl)-N-(pyridin-2-yl)benzamide]",> 10000,
"C=CC(=O)N1CCC[C@H]1c1nc(-c2ccc(Oc3cccc(OC)c3C)cc2)c2cnccn12 [Example 29, (S)-1-(2-(1-(4-(3-methoxy-2-methylphenoxy)phenyl)imidazo[1,5-a]pyrazin-3-yl)pyrrolidin-1-yl)prop-2-en-1-one]",< 10,
"CC#CC(=O)N1CC[C@@H](c2nc(-c3ccc(Oc4cccc(OC)c4F)cc3)c3c(OC)nccn23)C1 [Example 116, (R)-1-(3-(1-(4-(2-fluoro-3-methoxyphenoxy)phenyl)-8-methoxyimidazo[1,5-a]pyrazin-3-yl)pyrrolidin-1-yl)but-2-yn-1-one]",> 10000,
"C=CC(=O)N1CC[C@@H](c2nc(-c3ccc(Oc4cccc(OC)c4F)cc3)c3cncc(OC4CCC4)n23)C1 [Example 100, (R)-1-(3-(5-cyclobutoxy-1-(4-(2-fluoro-3-methoxyphenoxy)phenyl)imidazo[1,5-a]pyrazin-3-yl)pyrrolidin-1-yl)prop-2-en-1-one]",< 10,
"C=CC(=O)N1CC[C@@H](c2nc(-c3ccc(Oc4cccc(OC)c4F)cc3)c3cncc(OC4CCOC4)n23)C1 (stereo partly drawn) [Example 98, 1-((3R)-3-(1-(4-(2-fluoro-3-methoxyphenoxy)phenyl)-5-((tetrahydrofuran-3-yl)oxy)imidazo[1,5-a]pyrazin-3-yl)pyrrolidin-1-yl)prop-2-en-1-one]",< 10,
"C=CC(=O)N1CC[C@@H](c2nc(-c3ccc(Oc4cccc(OC)c4F)cc3)c3c(C)ncc(C)n23)C1 [Example 74, (R)-1-(3-(1-(4-(2-fluoro-3-methoxyphenoxy)phenyl)-5,8-dimethylimidazo[1,5-a]pyrazin-3-yl)pyrrolidin-1-yl)prop-2-en-1-one]",< 10,
"CC#CC(=O)N1CCCC[C@H]1c1nc(-c2ccc(C(=O)Nc3cc(C(F)(F)F)ccn3)cc2)c2c(C(F)(F)F)nccn12 [Example 202, (S)-4-(3-(1-(but-2-ynoyl)piperidin-2-yl)-8-(trifluoromethyl)imidazo [1,5-a]pyrazin-1-yl)-N-(4-(trifluoromethyl)pyridin-2-yl)benzamide]",> 10000,
"C=CC(=O)N1CCC[C@H]1c1nc(-c2ccc(OCc3c(F)cccc3F)cc2)c2cnccn12 [Example 136, (S)-1-(2-(1-(4-((2,6-difluorobenzyl)oxy)phenyl)imidazo[1,5-a]pyrazin-3-yl)pyrrolidin-1-yl)prop-2-en-1-one]",,IC50 (LYN): > 10000 nM; IC50 (LCK): > 10000 nM; IC50 (BTK [2]): 10 to 100 nM; IC50 (ITK): 1000 to 10000 nM; IC50 (TEC): 100 to 1000 nM; IC50 (EGFR): 1000 to 10000 nM; IC50 (BTK [1]; read-out: BTK IC50): 10 to 100 nM
